The data set deals with human recombinant carboxylesterases. The data set can be described thus: In vitro metabolic stability (rate of metabolite formation) in human recombinant carboxylesterases. The data set is classed as in vitro ADME. Particulars: human recombinant carboxylesterases 0.1 mg/mL, 1 μM test compound, pH 6.0, 37° C. The protocol:
Dutch Belted rabbits were euthanized with an overdose of sodium pentobarbital. The corneas were collected and homogenized in ice-cold potassium chloride solution (pH=7.4). The homogenate was centrifuged at 755×g for 30 min at 4° C. and aliquots of the supernatant were stored at or below −70° C. until metabolism experiments were conducted. Prior to storing the homogenates an aliquot was removed for determination of protein concentrations by calculating the 260 nm absorbance using a spectrophotometer. Human recombinant carboxylesterases were purchased from a commercial vendor (BD Gentest™, Bedford, Mass.)
All metabolic stability experiments were performed in triplicate in 96-well plate format. The final incubation mixture contained 1 μM test compound, 0.3 mg/mL corneal protein homogenate or 0.1 mg/mL human recombinant carboxylesterase mixture in a final volume of 0.5 mL 0.1 M potassium phosphate buffer (pH=6.0). The final percentage of solvent in the incubation was less than 1.0% to prevent inhibition of enzymatic activity. Following a pre-incubation at 37° C., test article (i.e. ester linked hybrids) was added to initiate the reaction. At designated time points (typically less than 60 minutes to capture the linear range of metabolite formation), 0.05 mL aliquots were removed from the incubation mixtures using a clean pipet tip and immediately placed in organic solvent to stop any esterase activity.
Hydrolysis of the metabolites was confirmed to be due to esterase activity and not chemical lability. The samples were analyzed by liquid chromatography with mass spectrometry (LC-MS/MS) detection to determine the metabolite concentrations resulting from the metabolism of ester linked hybrids. Internal standards were used to compensate for variability from sample processing, chromatographic elution, mass spectrometer response and ion suppression by matrix components.

Here are results for five compounds from patent US20140256660A1, “ANTIBIOTIC CONJUGATES LINKED WITH STEROID DRUGS” (Allergan, Inc., priority 2013, published 2014).

Take `COc1c(N2CC3CCCN(C(=O)OCOC(=O)CCC(=O)N[C@@H](C(=O)OCC(=O)[C@]4(O)CCC5C6CCC7=CC(=O)C=C[C@@]7(C)C6[C@H](O)C[C@]54C)C(C)C)C3C2)c(F)cc2c(=O)c(C(=O)O)cn(C3CC3)c12` (relative stereo) [Compound 61, rel-1-cyclopropyl-7-{1-[(10R)-14-[(10S,11R,13R,17S)-11,17-dihydroxy-10,13-dimethyl-3-oxo-6,7,8,9,10,11,12,13,14,15,16,17-dodecahydro-3H-cyclopenta[a]phenanthren-17-yl]-5,8,11,14-tetraoxo-10-(propan-2-yl)-2,4,12-trioxa-9-azatetradecan-1-oyl]octahydro-6H-pyrrolo[3,4-b]pyridin-6-yl}-6-fluoro-8-methoxy-4-oxo-1,4-dihydroquinoline-3-carboxylic acid]: the “Rate of formation Metabolite 2 (Moxifloxacin)” value (“Rate … (Moxifloxacin)” for short) worked out at 18.5 ± 1.7 nM/min/mg and the “Rate of formation Metabolite 1 (Prednisolone)” value (from here on “Rate … (Prednisolone)”) is 11.8 ± 0.5 nM/min/mg.

For `COc1c(N2C[C@@H]3CCCN[C@@H]3C2)c(F)cc2c(=O)c(C(=O)OCOC(=O)OCC(=O)[C@]3(O)CC[C@@H]4[C@H]5CCC6=CC(=O)C=C[C@@]6(C)C5[C@H](O)C[C@]43C)cn(C3CC3)c12` (relative stereo) [Compound 64, [({2-[(8R,10S,11R,13R,14R,17S)-11,17-dihydroxy-10,13-dimethyl-3-oxo-6,7,8,9,10,11,12,13,14,15,16,17-dodecahydro-3H-cyclopenta[a]phenanthren-17-yl]-2-oxoethoxy}carbonyl)oxy]methyl rel-1-cyclopropyl-6-fluoro-8-methoxy-7-[(4aS,7aS)-octahydro-6H-pyrrolo[3,4-b]pyridin-6-yl]-4-oxo-1,4-dihydroquinoline-3-carboxylate], the “Rate … (Moxifloxacin)” value worked out at 644 ± 20 nM/min/mg and the “Rate … (Prednisolone)” value is on record as 641 ± 22 nM/min/mg.

As to `COc1c(N2C[C@@H]3CCCN[C@@H]3C2)c(F)cc2c(=O)c(C(=O)OC(C)OC(=O)OCC(=O)[C@]3(O)CC[C@@H]4[C@H]5CCC6=CC(=O)C=C[C@@]6(C)C5[C@H](O)C[C@]43C)cn(C3CC3)c12` (relative stereo) [Compound 65, 1-[({2-[(8R,10S,11R,13R,14R,17S)-11,17-dihydroxy-10,13-dimethyl-3-oxo-6,7,8,9,10,11,12,13,14,15,16,17-dodecahydro-3H-cyclopenta[a]phenanthren-17-yl]-2-oxoethoxy}carbonyl)oxy]ethyl rel-1-cyclopropyl-6-fluoro-8-methoxy-7-[(4aS,7aS)-octahydro-6H-pyrrolo[3,4-b]pyridin-6-yl]-4-oxo-1,4-dihydroquinoline-3-carboxylate], the “Rate … (Moxifloxacin)” value amounted to 482 ± 72 nM/min/mg and the “Rate … (Prednisolone)” value is reported as 364 ± 27 nM/min/mg.

With `C[C@H]1C[C@H]2[C@@H]3CCC4=CC(=O)C=C[C@]4(C)[C@@]3(F)[C@@H](O)C[C@]2(C)[C@@]1(O)C(=O)COC(=O)CCC(=O)OC[C@@H](NC(=O)C(Cl)Cl)[C@H](O)c1ccc([N+](=O)[O-])cc1` (relative stereo) [Compound 73, (2R,3R)-2-[(dichloroacetyl)amino]-3-hydroxy-3-(4-nitrophenyl)propyl 2-[(8S,9R,10S,11S,13S,14S,16S,17R)-9-fluoro-11,17-dihydroxy-10,13,16-trimethyl-3-oxo-6,7,8,9,10,11,12,13,14,15,16,17-dodecahydro-3H-cyclopenta[a]phenanthren-17-yl]-2-oxoethyl rel-butanedioate], the “Rate of formation Metabolite 1 (Betamethasone)” value (metabolite Betamethasone) came to 1440 ± 120 nM/min/mg. Moreover, for the setting “metabolite Chloramphenicol”, the “Rate of formation Metabolite 2 (Chloramphenicol)” value is 107 ± 13 nM/min/mg.

As to “rel-1-cyclopropyl-6-fluoro-7-[4-(4-{2-[(8R,9S,10R,11R,13R,14R,16S,17S)-9-fluoro-11,17-dihydroxy-10,13,16-trimethyl-3-oxo-6,7,8,9,10,11,12,13,14,15,16,17-dodecahydro-3H-cyclopenta[a]phenanthren-17-yl]-2-oxoethoxy}-4-oxobutanoyl)-3-methylpiperazin-1-yl]-8-methoxy-4-oxo-1,4-dihydroquinoline-3-carboxylic acid [Compound 10]”, the “Rate of formation Metabolite 1 (Dexamethasone)” value (metabolite Dexamethasone) is given as 737 ± 28 nM/min/mg. Moreover, the “Rate of formation Metabolite 2 (Gatifloxacin)” value (metabolite Gatifloxacin) is listed as 7.71 ± 0.57 nM/min/mg.
